Test results from patent publication US11045559B2, “Reactive fluorogenic compound and nanocomposite for sensing hydrogen sulfide comprising the same” (KOREA INSTITUTE OF SCIENCE AND TECHNOLOGY, priority 2017, dated 2021).

Test: Fluorescence response and chemoselectivity of ABR in organic media
From the text: Specifically, in order to devise a H2S-responsive fluorogenic molecular probe, the present inventors have adopted a reaction strategy based on the chemoselective reduction of aryl azides to amines, which is triggered through nucleophilic attack by a hydrosulfide anion (HS^−), which is the main active form of H2S under physiological conditions. In the probe design, the 4-azidobenzyl group was selected as a self-immolative aryl azide linker, and it was linked to a fluorescent emitter, resorufin, at its 7-hydroxy position. Since the 7-hydroxy substituent is known to efficiently quench the fluorescence of resorufin, the designed molecular probe, azidobenzylresorufin (ABR), is anticipated to be nonfluorescent and able to undergo self-immolative cleavage upon reaction with HS^−, to release a 1,6-elimination product (azaquinone methide) and resorufin with fluorescence recovery. […] Along the resulting fluorescence spectrum, the ^1H-NMR analysis confirmed that the fluorescent product is resorufin recovered through the self-immolative release from ABR after reduction by H2S (FIG. 3).

[N-]=[N+]=Nc1ccc(COc2ccc3nc4ccc(=O)cc-4oc3c2)cc1 [ABR, 7-(4-azidobenzyloxy)-3H-phenoxazin-3-one]
fluorescence response toward H2S (NaHS present vs absent, FIG. 2a): fluorescence turn-on response toward H2S
chemoselectivity in spectroscopic response (reactive sulfur, oxygen, nitrogen species 100 μM (GSH 1 mM) in acetonitrile, FIG. 2b): responded only to H2S
